Reference: patent US4320134A, “Inhibiton of thromboxane synthetase with 1-substituted imidazole compounds” (Ono Pharmaceutical Co., Ltd., priority 1978, dated 1982)
Structures can show the parent of a compound that is named as a salt.

Key:
[1] = Acute toxicity (LD50), intravenous, mice; details: mouse, in vivo, dd-stain male mice, 7 weeks old, Behrens-Karber method, read-out: median lethal dose (LD50)
Description: The median lethal dose (LD50) of N-(7-carboxyheptyl)imidazole and N-(6-methoxycarbonylhexyl)imidazole (known compound) were determined in dd-stain male mice (7 weeks old) by intravenous administration. The LD50 values were calculated according to the Behrens-Karber method.

thromboxane synthetase [2] = biological target: T1, thromboxane synthetase (Oryctolagus cuniculus, UniProt G1TAZ9); test: Inhibitory potency of imidazole compounds on thromboxane synthetase (conversion of prostaglandin H2 to thromboxane B2 by rabbit platelet microsomes); format: biochemical; details: 24° C., 1 minute
T1 construct: from tissue; host or cells: rabbit platelets (microsomes)
T1 sequence (G1TAZ9 1-530): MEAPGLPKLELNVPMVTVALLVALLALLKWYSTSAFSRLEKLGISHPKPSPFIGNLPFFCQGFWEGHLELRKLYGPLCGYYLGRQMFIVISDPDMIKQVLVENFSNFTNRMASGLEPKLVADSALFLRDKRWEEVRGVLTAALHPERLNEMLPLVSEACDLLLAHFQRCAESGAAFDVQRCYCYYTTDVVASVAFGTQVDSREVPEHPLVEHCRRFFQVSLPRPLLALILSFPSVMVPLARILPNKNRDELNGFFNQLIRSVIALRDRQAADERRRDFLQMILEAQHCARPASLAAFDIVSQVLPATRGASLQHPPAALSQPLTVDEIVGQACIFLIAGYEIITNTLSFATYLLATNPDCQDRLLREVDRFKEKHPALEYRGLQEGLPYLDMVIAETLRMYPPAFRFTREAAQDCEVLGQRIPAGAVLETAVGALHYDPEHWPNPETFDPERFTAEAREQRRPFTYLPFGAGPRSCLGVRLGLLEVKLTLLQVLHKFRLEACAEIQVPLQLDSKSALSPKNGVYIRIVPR
Description: (1-C^14)-Prostaglandin H2, obtained by the enzymatic biosynthesis with ram seminal vesicle microsomes and (1-C^14)-arachidonic acid, was incubated with rabbit platelet microsomes containing 0.025 μM and 0.5 μM of the test compound at 24° C. for 1 minute. The termination of the reaction and the extraction of a radioactive materials were carried out by the addition of a mixture of ethyl acetate/methanol/0.2 M citric acid (30:4:1 by volume). […] A spot of thromboxane B2 was counted by a packard Radiochromatogram Scanner.

thromboxane synthetase [3] = details: in words; reported in the literature; cited from earlier work
thromboxane synthetase [4] = test: Inhibitory effect on thromboxane synthetase, general statements; format: biochemical; details: in words

SMILES | inhibition at 0.025 µM (thromboxane synthetase [2]) [%] | inhibition at 0.5 µM (thromboxane synthetase [2]) [%] | other results
O=C(O)CCCCCCCn1ccnc1 [N-(7-carboxyheptyl)imidazole, 1-(7-Carboxyheptyl)imidazole] |  |  | LD50 [1]: 560 mg/kg
Cn1ccnc1 [1-methylimidazole] |  |  | inhibitory action for thromboxane synthetase (thromboxane synthetase [3]): weak
O=C(O)CCCCCCn1ccnc1 [N-(6-carboxyhexyl)imidazole hydrochloride] | 10.1 | 76.1 | 
COC(=O)CCCCCCn1ccnc1 [N-(6-methoxycarbonylhexyl)imidazole, reference compound] | 5.5 | 25.7 | LD50 [1]: 140 mg/kg; inhibitory effect on thromboxane synthetase compared with imidazole or 1-methylimidazole (thromboxane synthetase [4]): stronger inhibitory effect; inhibitory effect on thromboxane synthetase, suitability as medication (thromboxane synthetase [4]): not completely satisfactory as a practical medication
O=C(O)CCCCCCCn1ccnc1 [1-(7-Carboxyheptyl)imidazole Hydrochloride] | 31.2 | 89 | 
c1c[nH]cn1 [imidazole] |  |  | inhibitory action for thromboxane synthetase (thromboxane synthetase [3]): weak
O=C(O)CCCCCCCCn1ccnc1 [N-(8-carboxyoctyl)imidazole hydrochloride] | 42.2 | 90.8 | 

More lines, main results first:

inhibition at 0.025 µM (thromboxane synthetase [2]) [%] | inhibition at 0.5 µM (thromboxane synthetase [2]) [%] | SMILES | other results
9.2 | 40.4 | O=C(O)CCCCCCCCCCn1ccnc1 [N-(10-carboxydecyl)imidazole hydrochloride] | 
20.2 | 72.5 | O=C(O)CCCCCCCCCn1ccnc1 [N-(9-carboxynonyl)imidazole hydrochloride] | 
13.8 | 46.8 | O=C(O)CCCCCCCCCCCn1ccnc1 [N-(11-carboxyundecyl)imidazole hydrochloride] | 
